According to patent publication US20060270727A1, “Small molecule therapeutics and uses therefor” (priority 2005, published 2006):

Tests used:
[1] = tested on: duplex DNA having GAA repeats ((GAA)33); assay: Quantitative DNase I footprinting on extended GAA repeat DNA; format: binding
Text: The term “mismatch” in the context of polyamides or linkable units refers to replacement of one or more linkable units in a polyamide such that recognition for a specific duplex DNA pair is energetically less favorable (Dervan & Edelson, Id.; Urbach & Dervan, Id). The term “match” in the context of polyamide binding to DNA refers to a linkable unit selected according to the polyamide recognition rules of Urbach & Dervan (Id). or Dervan & Edelson (Id).
where the second oligonucleotide was labeled with γ-^32P ATP and polynucleotide kinase, using standard procedures, to generate a PCR product labeled on the GAA strand. A 204 bp singly end-labeled PCR product was derived from plasmid pMP142 DNA, containing 33 GAA repeats (Ohshima et al., Id.), with following oligonucleotides: […]

[2] = tested on: mismatch DNA sequence 5′-GGAGGAGGTGGAGGAGGA-3′ from the erbB2 (Her2-neu) promoter; assay: DNase I footprinting on mismatch DNA; format: binding, human; conditions: polyamide concentrations up to 100 nM
Method: Two additional molecules, FA5 [(ImPyβ)4ImβDp] and FA6 [(ImPyβ)5ImβDp], were synthesized in order to target longer regions of GAA repeats in duplex DNA; i.e., (AAG)5 (SEQ ID NO: ______) and (AAG)6 (SEQ ID NO: ______) respectively. […] As another test for sequence specificity, footprinting experiments with FA1 and FA3 and a radiolabeled DNA fragment containing a mismatch DNA sequence 5′-GGAGGAGGTGGAGGAGGA-3′ (SEQ ID NO: ______) were performed.
The first oligonucleotide shown was radiolabeled as above to generate a PCR product labeled on the GAA strand. A 150 bp PCR product containing a (GGA•TCC)6 mismatch sequence was derived from the erbB2 (Her2-neu) promoter in human genomic DNA with the following oligonucleotides: […]

[3] = tested on: frataxin protein in GM15850 FRDA cells; assay: Western blot of frataxin protein; format: cell-based, human; conditions: 1-2 μM for 7 days, SDS-PAGE and western blot
Method: Since the primary transcripts from FRDA frataxin genes contain long stretches of GAA repeat RNA sequence, it is conceivable that this RNA will not be correctly processed into mature frataxin mRNA and frataxin protein will not be produced. To test whether polyamide FA 1 leads to increased levels of frataxin protein in treated lymphoid cells, total cell extracts from polyamide-treated (1-2 μM for 7 days) and untreated GM15851 control and GM15850 FRDA cells were subjected to SDS-PAGE, and the corresponding blots were probed with anti-frataxin or anti-actin antibodies. SDS-PAGE (i.e., sodium dodecylsulfate-polyacrylamide gel electrophoresis) was conducted by standard methods well known in the art.
Western Blot Analysis. Total cell extracts were used for SDS-PAGE and western blotting with antibodies to human frataxin (Chemicon) or actin (Santa Cruz Biotechnology) as a control for cell number and protein loading. Signals were detected by chemiluminescence after probing the blot with HRP-conjugated secondary antibody (Supersignal West, Pierce). To quantify the relative levels of proteins, autoradiograms (within the linear response range of X-ray film) were converted into digital images and the signals quantified using Molecular Dynamics ImageQuant software.

CN(C)CCCNC(=O)CCNC(=O)c1nc(NC(=O)CCNC(=O)c2cc(NC(=O)c3nc(NC(=O)CCNC(=O)c4cc(NC(=O)c5nccn5C)cn4C)cn3C)cn2C)cn1C [FA1, ImPyβImPyβImβDp]
concentration at 50% occupancy of the DNA ([1]; equals target site concentration in the reaction): ~1.5 nM | affinity for extended GAA repeats ([1]; several molecules bound per DNA molecule): no loss in affinity | binding to mismatch DNA sequence [2]: Neither FA1 nor FA3 bound this DNA sequence | increase in frataxin protein [3]: 2-3 fold
